Test results as given in patent publication US20240216272A1, “PHARMACEUTICAL PREPARATION” (KOWA COMPANY, LTD., priority 2014, published 2024).

What was measured:
Assay type in all cases: physicochemical
[1] = Test Example 9: Preservation Test No. 3, precipitation of crystals at 0° C.; set-up: key to Presence or Absence of Precipitation of Crystals: the absence of precipitation of crystals was rated as “a”; the presence of precipitation of crystals was rated as “b”; settings: for Presence or Absence of Precipitation of Crystals: aqueous composition of Table 11 (phosphate, pH 6.7), 0° C. for 2 days; for precipitation of crystals: preserved at low temperature, in words
Protocol: An aqueous composition of the formulation shown in Table 11 was prepared in accordance with a conventional method, and then placed in a container made of polyethylene terephthalate (PET) or polyvinyl chloride (PVC) to produce a pharmaceutical preparation. Each of the resulting pharmaceutical preparations was preserved at 0° C. for 2 days, and then visually evaluated for the presence or absence of precipitation of crystals. Note that the absence of precipitation of crystals was rated as “a”, and the presence of precipitation of crystals was rated as “b”. [table]

[2] = Test Example 2: photostability of ripasudil in an aqueous composition; settings: D65 lamp; for Analogs (%): aqueous composition 0.4 g/100 mL as free form, pH 6.0, transparent polypropylene container, 25° C.
Protocol: In the following test examples, ripasudil monohydrochloride dihydrate can be produced in accordance with the method described in WO2006/057397, for example. Moreover, in the following test examples, measurement of ripasudil and its analogs using HPLC was performed using an ODS column as the column, 0.01 mol/L phosphate buffer and acetonitrile as the mobile phase, and an ultraviolet absorptiometer (wavelength: 280 nm) as the detector.
The stability of ripasudil incorporated in an aqueous composition with respect to light was evaluated by examining the presence or absence of degradation products formed by exposure to light, as in Test Example 1.
Specifically, an aqueous composition containing, per 100 mL, 0.4896 g of ripasudil monohydrochloride dihydrate (0.4 g, as the free form of ripasudil), 0.4 g of anhydrous sodium dihydrogen phosphate, 2.136 g of glycerin, 0.002 g of benzalkonium chloride, an appropriate amount of sodium hydroxide (pH 6.0), and sterile purified water (balance) was prepared, and this aqueous composition was stored in a transparent container made of polypropylene. The aqueous composition was then irradiated with 4000 lux of light to give a cumulative radiation dose of 300,000, 600,000, or 1,200,000 lux·hr, at 25° C., with a D65 fluorescent lamp as the light source, using a photostability tester (LT-120A: Nagano Science Corporation).
To examine the presence or absence of photodegradation products of ripasudil, the presence or absence of an increase in the amount of ripasudil analogs was evaluated. The amount of analogs was evaluated as the area percentage (%) relative to the total peak area derived from ripasudil and its analogs, using HPLC.

[3] = Test Example 3: wavelengths of rays causing degradation of ripasudil in an aqueous composition No. 1; settings: for Analogs (%): about 15 W·h/m^2, 25° C.; for increase in the amount of analogs: aqueous composition, in words
Protocol: In the following test examples, ripasudil monohydrochloride dihydrate can be produced in accordance with the method described in WO2006/057397, for example. Moreover, in the following test examples, measurement of ripasudil and its analogs using HPLC was performed using an ODS column as the column, 0.01 mol/L phosphate buffer and acetonitrile as the mobile phase, and an ultraviolet absorptiometer (wavelength: 280 nm) as the detector. The wavelengths of rays causing the photodegradation of ripasudil in the aqueous composition examined in Test Example 2 were identified by examining the presence or absence of degradation products formed by exposure to light, by irradiation of rays with a specific range of wavelengths. Specifically, an aqueous composition containing, per 100 mL, 0.0612 g of ripasudil monohydrochloride dihydrate (0.05 g as the free form of ripasudil), 1.19 g of boric acid, 0.42 g of potassium chloride, 0.002 g of benzalkonium chloride, an appropriate amount of sodium hydroxide (pH 6.7), and sterile purified water (balance) was prepared, and this aqueous composition was stored in a transparent container made of polypropylene. The aqueous composition was then irradiated with rays with wavelengths in the range of approximately 270 to 335 nm, 320 to 395 nm, 370 to 435 nm, 430 to 470 nm, 470 to 530 nm, 525 to 575 nm, 570 to 630 nm, 625 to 675 nm, or 660 to 740 nm, at 25° C., using a spectroradiometer equipped with optical filters (spectral unit: HSU-100S, light source: MAX-302FBD; both from Asahi Spectra Co., Ltd.). Note that the rays of wavelengths in each of the ranges were emitted at a radiation energy of about 15 w·h/m^2. To examine the presence or absence of photodegradation products of ripasudil, the presence or absence of an increase in the amount of ripasudil analogs was evaluated, using the same method as that of Test Example 1.

[4] = Test Example 6: photostability in container with shrinkable film containing an ultraviolet scattering agent; settings: for Analogs (%): aqueous composition 0.4 g/100 mL as free form, pH 6.0, polypropylene container wound with shrinkable film containing titanium oxide (transmittance 300 to 335 nm: 0.3%)
Protocol: Stabilization of the aqueous composition containing ripasudil was attempted by storing the aqueous composition in a container containing an ultraviolet scattering agent, as in Test Example 5. Specifically, the test was performed as in Test Example 5, except that the below-described container including a shrinkable film containing an ultraviolet scattering agent was used instead of the container containing an ultraviolet absorber, and a white fluorescent lamp (one used in a hospital dispensary and the like) was used as the light source instead of the D65 fluorescent lamp. A white shrinkable film (heat-shrinkable film) (Iwata Label Co., Ltd.) into which 40 to 45 mass % of titanium oxide was mixed as an ultraviolet scattering agent was wound around a side surface of a general container for eye drops made of polypropylene not containing an ultraviolet absorber, an ultraviolet scattering agent, or the like, in accordance with a conventional method, and the resulting container was used. […] Since the shrinkable film was not transparent, the contents were not visible through the side surface of the container in this state (for example, the average value of transmittance of light in the visible light region (450 to 750 nm) was 1.1%). Thus, slits with about a width of 5 mm were provided in the lower half of the side surface of the container to make the amount of the contents visible (this portion was not able to block the rays). The contents were visible through the bottom surface of the container, since the shrinkable film was not wound around the bottom surface.

Presence or Absence of Precipitation of Crystals ([1]; container PET): a | Presence or Absence of Precipitation of Crystals ([1]; container PVC): b | precipitation of crystals ([1]; container made of PVC): precipitation of crystals was observed | Analogs (%) ([2]; 300,000 lux·hr): 1.29% | Analogs (%) ([2]; 600,000 lux·hr): 1.95% | Analogs (%) ([2]; 1,200,000 lux·hr): 3.67% | Analogs (%) ([2]; before exposure to light): 0.17% | Analogs (%) ([3]; aqueous composition 0.05 g/100 mL as free form, boric acid, pH 6.7, transparent polypropylene container, emitted wavelengths 270 to 335 nm): 4.22% | Analogs (%) ([3]; same composition, emitted wavelengths 320 to 395 nm): 1.23% | Analogs (%) ([3]; same composition, emitted wavelengths 370 to 435 nm): 0.05% | Analogs (%) ([3]; same composition, emitted wavelengths 430 to 470 nm): 0.05% | Analogs (%) ([3]; same composition, emitted wavelengths 470 to 530 nm): 0.05% | Analogs (%) ([3]; same composition, emitted wavelengths 525 to 575 nm): 0.05% | Analogs (%) ([3]; same composition, emitted wavelengths 570 to 630 nm): 0.05% | Analogs (%) ([3]; same composition, emitted wavelengths 625 to 675 nm): 0.05% | Analogs (%) ([3]; same composition, emitted wavelengths 660 to 740 nm): 0.05% | Analogs (%) ([4]; before exposure to light): 0.13% | Analogs (%) ([4]; white fluorescent lamp, 1,200,000 lux·hr): 0.28% | photostability of ripasudil in the aqueous composition ([4]; container with average transmittance at 300 to 335 nm of 0.3%, in words): improved
SMILES: C[C@H]1CNCCCN1S(=O)(=O)c1cccc2cncc(F)c12 [ripasudil, 4-fluoro-5-[[(2S)-2-methyl-1,4-diazepan-1-yl]sulfonyl]isoquinoline]
precipitation of crystals ([1]; container made of PET): no precipitation of crystals was observed | formation of degradation products due to exposure to light ([2]; aqueous composition, transparent polypropylene container, in words): degradation products due to exposure to light are formed | increase in the amount of analogs ([3]; rays with wavelengths of 370 nm or more): an increase in the amount of analogs was not observed | increase in the amount of analogs ([3]; shorter wavelengths, particularly 270 to 335 nm): a significant increase in the amount of analogs was observed
